Legend:
Assay type in all cases: cell-based, Diaphorina citri
Settings in all cases: Table 1; odor diluted to 1%, 50 μL in cartridge
[1] = tested on: neuron 7C (rhinarial plate on flagellomere 7); assay: single-sensillum electrophysiology, odor response of neuron 7C
[2] = tested on: neuron 6C (rhinarial plate on flagellomere 6); assay: single-sensillum electrophysiology, odor response of neuron 6C
[3] = tested on: neuron 2C (rhinarial plate on flagellomere 2); assay: single-sensillum electrophysiology, odor response of neuron 2C
[4] = tested on: neuron 4B (rhinarial plate on flagellomere 4)
[5] = tested on: neuron 7B (rhinarial plate on flagellomere 7)
[6] = tested on: neuron 6A (rhinarial plate on flagellomere 6); assay: single-sensillum electrophysiology, odor response of neuron 6A
[7] = tested on: neuron 6B (rhinarial plate on flagellomere 6); assay: single-sensillum electrophysiology, odor response of neuron 6B
[8] = tested on: neuron 2B (rhinarial plate on flagellomere 2); assay: single-sensillum electrophysiology, odor response of neuron 2B
[9] = tested on: neuron 2A (rhinarial plate on flagellomere 2); assay: single-sensillum electrophysiology, odor response of neuron 2A; also: key: 0, no response; +, >50 spikes/second; ++, >100 spikes/second; +++, >150 spikes/second
[10] = tested on: neuron 7A (rhinarial plate on flagellomere 7); assay: single-sensillum electrophysiology, odor response of neuron 7A; also: key: 0, no response; +, >50 spikes/second; ++, >100 spikes/second; +++, >150 spikes/second
[11] = tested on: neuron 4A (rhinarial plate on flagellomere 4); assay: single-sensillum electrophysiology, odor response of neuron 4A
[12] = tested on: neuron 4C (rhinarial plate on flagellomere 4); assay: single-sensillum electrophysiology, odor response of neuron 4C

Row | SMILES | odor response (frequency of action potentials during stimulus minus baseline), 7C [1] | odor response (frequency of action potentials during stimulus minus baseline), 6C [2] | odor response (frequency of action potentials during stimulus minus baseline), 2C [3] | odor response (frequency of action potentials during stimulus minus baseline), 4B [4] | odor response (frequency of action potentials during stimulus minus baseline), 7B [5] | odor response (frequency of action potentials during stimulus minus baseline), 6A [6] | odor response (frequency of action potentials during stimulus minus baseline), 6B [7] | odor response (frequency of action potentials during stimulus minus baseline), 2B [8] | odor response (frequency of action potentials during stimulus minus baseline), 2A [9] | odor response (frequency of action potentials during stimulus minus baseline), 7A [10] | odor response (frequency of action potentials during stimulus minus baseline), 4A [11] | odor response (frequency of action potentials during stimulus minus baseline), 4C [12]
1 | C/C1=C\CC/C(C)=C/CC(C)(C)/C=C/C1 [α-humulene] | 0 | 0 | 0 | 0 | ++ (++, >100 spikes/second) | 0 | 0 | ++ (++, >100 spikes/second) | 0 | 0 | 0 | 0
2 | O=CCc1ccccc1 [phenylacetaldehyde] | 0 | 0 | 0 | + (+, >50 spikes/second) | 0 | 0 | + (+, >50 spikes/second) | 0 | 0 | 0 | 0 | 0
3 | CC1=CC=C(C(C)C)CC1 [α-terpinene] | 0 | 0 | 0 | ++ (++, >100 spikes/second) | 0 | 0 | ++ (++, >100 spikes/second) | 0 | 0 | 0 | 0 | 0
4 | CC(C)=CCCC(C)CC=O (stereo not drawn) [citronellal] | 0 | 0 | + (+, >50 spikes/second) | 0 | 0 | 0 | 0 | 0 | 0 | 0 | 0 | 0
5 | CCCC(=O)OC [methyl butyrate] | + (+, >50 spikes/second) | 0 | 0 | ++ (++, >100 spikes/second) | 0 | 0 | + (+, >50 spikes/second) | 0 | 0 | 0 | 0 | 0
6 | CCCCCCCC=O [octanal] | 0 | + (+, >50 spikes/second) | 0 | 0 | ++ (++, >100 spikes/second) | + (+, >50 spikes/second) | 0 | + (+, >50 spikes/second) | 0 | 0 | + (+, >50 spikes/second) | + (+, >50 spikes/second)
7 | CC1=CCC(C(C)C)=CC1 [γ-terpinene] | 0 | 0 | 0 | +++ (+++, >150 spikes/second) | 0 | 0 | ++ (++, >100 spikes/second) | 0 | 0 | 0 | 0 | 0
8 | CCC/C=C\CO [Z2-hexanol] | 0 | 0 | 0 | + (+, >50 spikes/second) | 0 | 0 | + (+, >50 spikes/second) | 0 | 0 | 0 | 0 | 0
9 | O=Cc1ccccc1 [benzaldehyde] | 0 | 0 | + (+, >50 spikes/second) | + (+, >50 spikes/second) | 0 | 0 | 0 | 0 | 0 | 0 | 0 | 0

Reference: patent US20180055032A1, “ODORS FOR PSYLLID TRAPPING, REPELLING AND CONTROL” (The Regents of the University of California, priority 2011, published 2018)
